Measurements reported in patent US20190328721A1, “METHOD OF ACTIVATING DENDRITIC CELLS” (KOREA INSTITUTE OF SCIENCE AND TECHNOLOGY, priority 2018, published 2019).

Legend:
CT26 cancer cells = assay: CT26 tumor model; assay type: in vivo, mice; conditions: fasudil 20 mg/kg; Y27632 10 mg/kg
Description: The same procedure as described above was repeated except that CT26 was used instead of the CT26.CL25 colon cancer cell line and fasudil (Selleck Chemicals, USA) at 20 mg/kg of body weight or Y27632 at 10 mg/kg of body weight was administered.

IFN-γ = IFN-γ ELISA of draining lymph node cells given β-gal peptide; assay type: in vivo, mice
Description: After draining lymph node was isolated from the tumor model animals, 5 μg/ ? of β-gal peptide (TPHPARIGL, SEQ ID NO: 1, including the naturally processed H-2 Ld limited epitope comprising amino acid residue 876 to 884 of β-galactosidase) which simulates β-gal peptide, a model antigen present in CT26.CL25 cells, or PBS were administered and the expression of IFN-γ was measured by IFN-γ ELISA kit (R&D Systems, Inc., USA).

CT26.CL25 cells = assay: Anti-cancer immune memory (tumor removal and re-injection); assay type: in vivo, Balb/c wild-type mice; conditions: 10 mg/kg intravenous; compared with PBS control
Description: To confirm whether the ROCK inhibitor induces anti-cancer immune memory, CT26.CL25 cells (1×10^6 cells) were injected into the right flank of Balb/c wild-type mice to induce cancer, and then 10 mg/kg of Y27632 was administered continuously for two consecutive days via intravenous injection, followed by a day of rest as a cycle, followed by 3 cycles of 3-day intervals. After 22nd days from the day of cancer injection, the induced tumor was removed by surgery. One week later, the same cancer cells (7×10^6 cells) were injected to the other flank and the growth of tumor was investigated (FIG. 12A).

dendritic cells = assay: Flow cytometry of dendritic cells from B16F10-Ova-bearing mice (maturation, subsets, cross presentation); assay type: in vivo
Description: To confirm the effect of the ROCK inhibitor Y27632 on the maturation process of dendritic cells, the inventors administered Y27362 to B16F10-Ova-bearing cancer model animals according to the same administration schedule as in Example 2-1, and the expression of CD40 and CD86, which are dendritic cell maturation markers, was analyzed by flow cytometry.
Recently, it has been shown that CD103 (corresponding to CD141 in humans)-positive dendritic cells (CD103 DC) play an important role in cancer cell phagocytosis and T cell anticancer immunity among dendritic cells (Broz et al., Cancer Cell, 26 (5): 638-652, 2014). Therefore, in order to analyze the effect of the ROCK inhibitor on CD103 DC, Y27632 was administered to B16F10-Ova-bearing cancer model mice according to the administration schedule described in the above Example 2-1, tumor tissues and tumor-draining lymph nodes were excised, and then flow cytometry analysis was performed using antibodies specifically binding to dendritic cell markers (CD11b, CD103 and CD8). It was confirmed that the ratio of CD103 DC was increased by Y27632 in both the tumor-draining lymph nodes (FIG. 15A) and the tumor tissues (FIG. 15B). On the other hand, in the case of CD11b-positive and CD8-positive dendritic cells, no change due to administration of Y27632 was observed.
The present inventors analyzed cross presentation activity which is one of functions of dendritic cells via flow cytometry analysis using an antibody capable of detecting a cancer antigen (H-2K^b-Ova) capable of activating T cells, through flow cytometry analysis using an antibody (H-2K^b monoclonal antibody, Invitrogen, USA). It was confirmed that the cross presentation of CD103 DC was increased by Y27632 in both tumor-draining lymph nodes (FIG. 15C) and tumor tissues (FIG. 15D).
Further, the present inventors analyzed CD40, which is one of the markers of dendritic cell function capable of activating T cells and a DC maturation marker of dendritic cells, by flow cytometry analysis using anti-CD40 antibodies. As shown in FIGS. 15E and 15F, it was confirmed that the maturation of CD103 DC was increased by Y27632 in the tumor-draining lymph nodes.
The present inventors analyzed a series of immunological induction processes occurring after the phagocytosis against cancer cells or cancer-specific antigens in order to analyze the mechanism of the combination therapy for the anti-cancer immune response. Specifically, in order to confirm the effect of the combination therapy on the dendritic cell maturation, Y27632 and doxorubicin were administered to B16F10-Ova-bearing cancer model mice as described above, and then tumor-draining lymph nodes were isolated and the expression of CD40 and CD86, which are dendritic cell maturation markers, was analyzed by flow cytometry analysis.
Further, in order to confirm the effect of the combined treatment on the cross presentation process to the dendritic cells, the present inventors administered Y27632 and doxorubicin to B16F10-Ova-bearing cancer model mice as described above, isolated the tumor-draining lymph nodes, and then cross presentation activity, which is one of functions of dendritic cells, was analyzed via flow cytometry analysis using an antibody capable of detect a cancer antigen (H-2K^b-Ova) capable of activating T cells, through flow cytometry analysis using an antibody (H-2K^b monoclonal antibody, Invitrogen, USA).
The present inventors then investigated the effect of the combination of the drugs on the maturation process of dendritic cells. Specifically, the tumor-draining lymph nodes were isolated after administration of Y27632 and/or cisplatin in the B16F10-Ova-bearing cancer model, and the expression level of CD40 and CD86, the dendritic cell maturation markers, was analyzed by flow cytometry. As shown in FIG. 19C and 19D, there was no influence on the maturation of dendritic cells when Y27632 alone, cisplatin alone, or the combination of the two were administered (FIGS. 19C and 19D). […]

MMTV/Neu mice tumors = assay: Spontaneous cancer development model; assay type: in vivo
Description: The survival rate was recorded over up to 100 days. When the size of tumor was over 2,500 mm^3, the animal was euthanized (FIG. 20C).
Specifically, fluorescence immunohistochemical analysis was performed using anti-CD8 antibodies in the cancer tissues after the end of the experiment.
Accordingly, the present inventors investigated whether the combination of the drugs can increase the anti-cancer immunity even in the spontaneous cancer development model. […] After completion of the experiment, the present inventors isolated the spleen cells and treated with peptide against rat-Neu, an antigen expressed in the cancer of the spontaneous cancer development model, and after 48 hours, the culture supernatant was collected and IFN-γ was quantified using an ELISA kit (R&D Systems, Inc, USA).

[1] = test system: bone marrow-derived dendritic cells (BMDCs); assay: Phagocytosis of cancer cells by bone marrow-derived dendritic cells in vitro; assay type: cell-based, mice; conditions: 30 μM, 1 hour
[2] = tumor-draining lymph nodes, cisplatin study
[3] = tumor-draining lymph nodes, doxorubicin 5 mg/kg, Y27632 10 mg/kg

In the case of C[C@@H](N)[C@H]1CC[C@H](C(=O)Nc2ccncc2)CC1 [Y27632], the “growth of cancer (size of the tumor)” value (CT26 cancer cells) is reported as “inhibited the growth of cancer”, the “IFN-γ level in draining lymph node” value (IFN-γ; PBS liposome-treated group) is reported as “increased” and the “INF-γ expression in CD8-negative cells of draining lymph node” value (IFN-γ; mouse, in vivo) is reported as “no difference in INF-γ expression”. For the same molecule, the “amount of IFN-γ in CD8-positive cells of draining lymph node” value (IFN-γ; mouse, in vivo) was “increased”, the “proportion of tumor-free mice after re-injection of cancer cells” value (CT26.CL25 cells) was “significantly increased” and the “ratio of CD8-positive dendritic cells” value (dendritic cells; mouse, in vivo) was “no change”. For the same molecule, the “ratio of CD11b-positive dendritic cells” value (dendritic cells; mouse, in vivo) was “no change”, the “cross presentation (H-2Kb-Ova) of CD103 DC” value (dendritic cells; tumor tissues) was “increased” and the “ratio of CD103 DC” value (dendritic cells; tumor tissues) was “increased”. For the same molecule, the “expression of CD40 and CD86 in dendritic cells” value (dendritic cells; tumor-draining lymph node, schedule of Example 2-1) was “did not affect”, the “cross presentation (H-2Kb-Ova) of CD103 DC” value (dendritic cells; tumor-draining lymph nodes) was “increased” and the “cross-presentation (H-2Kb-Ova) in CD8 DCs” value (dendritic cells; tumor-draining lymph nodes) was “increased”. The “maturation of CD103 DC (CD40)” value (dendritic cells; tumor-draining lymph nodes) was “increased”, the “ratio of CD103 DC” value (dendritic cells; tumor-draining lymph nodes) was “increased” and the “cross-presentation function (H-2Kb-Ova) of dendritic cells” value (dendritic cells; [2]) was “increase”. For the same molecule, the “maturation of dendritic cells (CD40 and CD86)” value (dendritic cells; [2]) was “no influence”, the “antigenic cross presentation (H-2Kb-Ova) in the dendritic cells” value (dendritic cells; [3]) was “did not significantly increase” and the “dendritic cell maturation (expression of CD40 and CD86)” value (dendritic cells; [3]) was “no effect”. For the same molecule, the “anti-cancer immunity (IFN-γ of spleen cells treated with rat-Neu peptide)” value (MMTV/Neu mice tumors; 48 hours) was “increased”, the “CD8+ T cells in tumor tissues (infiltration)” value (MMTV/Neu mice tumors; anti-CD8 fluorescence immunohistochemistry) was “some T cell infiltration” and the “phagocytosis of BMDCs against non-immunogenic apoptosis-induced cancer cells by cisplatin” value ([1]; CT26.CL25 or B16F10-Ova) was “increased similarly to that by doxorubicin treatment”. The “phagocytosis of BMDCs against necrosis-induced cancer cells” value ([1]; necrosis at 55° C. for 30 minutes) was “increased similarly to that by doxorubicin treatment”.
